# In ChEMBL document CHEMBL1201862, “PubChem BioAssay data set” (2004):
#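 Protocol summary: plate cells (96-well), add compound at 5 concentrations, incubate 48 h, interpolate endpoints linearly. GI50 marks 50% less growth.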 Calls of active or inactive are those of the source. No stated cut-off is given here; in the data, active = GI50 up to about 1.1 µM and inactive = higher.
# Tests used:
# Experiment in all cases: NCI tumour cell line growth inhibition, 48 h
# [1] = tested on: 786-0
# [2] = tested on: A498
# [3] = tested on: A549
# [4] = tested on: ACHN
# [5] = tested on: CAKI-1
# [6] = tested on: COLO 205
# [7] = tested on: DLD-1
# [8] = tested on: DMS-114
# [9] = tested on: DMS-273
# [10] = tested on: EKVX
# [11] = tested on: HCC 2998
# [12] = tested on: HCT-116
# [13] = tested on: HCT-15
# [14] = tested on: HOP-18
# [15] = tested on: HOP-62
# [16] = tested on: HT-29
# [17] = tested on: IGROV-1
# [18] = tested on: KM-20L2
# [19] = tested on: KM12
# [20] = tested on: LOX IMVI
# [21] = tested on: LXFL 529
# [22] = tested on: M14
# [23] = tested on: M19-MEL
# [24] = tested on: MOLT-4
# [25] = tested on: Malme-3M
# [26] = tested on: NCI-H226
# [27] = tested on: NCI-H23
# [28] = tested on: NCI-H460
# [29] = tested on: NCI-H522
# [30] = tested on: OVCAR-3
# [31] = tested on: OVCAR-4
# [32] = tested on: OVCAR-5
# [33] = tested on: OVCAR-8
# [34] = tested on: RXF 393
# [35] = tested on: SF-268
# [36] = tested on: SF-295
# [37] = tested on: SF-539
# [38] = tested on: SK-MEL-28
# [39] = tested on: SK-MEL-2
# [40] = tested on: SK-OV-3
# [41] = tested on: SN12C
# [42] = tested on: SNB-19
# [43] = tested on: SNB-75
# [44] = tested on: SNB-78
# [45] = tested on: SR
# [46] = tested on: SW-620
# [47] = tested on: TK-10
# [48] = tested on: U-251
# [49] = tested on: UACC-257
# [50] = tested on: UACC-62
# [51] = tested on: UO-31
# [52] = tested on: CCRF-CEM
# [53] = tested on: HOP-92
# [54] = tested on: RPMI-8226
# [55] = tested on: SK-MEL-5
# [56] = tested on: XF498
smiles,measurement,setting,value
CC12O[Te]34OC1(C)C(C)(O3)C2(C)O4,GI50,[1],15.3 µM (inactive)
same,GI50,[2],> 8.75 µM (inactive)
same,GI50,[3],12.3 µM (inactive)
same,GI50,[4],14.8 µM (inactive)
same,GI50,[5],9.71 µM (inactive)
same,GI50,[6],16.9 µM (inactive)
same,GI50,[7],15.3 µM (inactive)
same,GI50,[8],13.6 µM (inactive)
same,GI50,[9],16.4 µM (inactive)
same,GI50,[10],20.1 µM (inactive)
same,GI50,[11],0.016 µM (active)
same,GI50,[12],11.9 µM (inactive)
same,GI50,[13],17.4 µM
same,GI50,[14],17.5 µM (inactive)
same,GI50,[15],20.4 µM (inactive)
same,GI50,[16],13.2 µM (inactive)
same,GI50,[17],11.9 µM (inactive)
same,GI50,[18],32.4 µM (inactive)
same,GI50,[19],14.8 µM (inactive)
same,GI50,[20],3.56 µM (inactive)
same,GI50,[21],14.6 µM (inactive)
same,GI50,[22],16.5 µM (inactive)
same,GI50,[23],13.5 µM (inactive)
same,GI50,[24],6.47 µM (inactive)
same,GI50,[25],18.1 µM (inactive)
same,GI50,[26],16.9 µM (inactive)
same,GI50,[27],16.4 µM (inactive)
same,GI50,[28],15.3 µM (inactive)
same,GI50,[29],11.8 µM (inactive)
same,GI50,[30],17.9 µM (inactive)
same,GI50,[31],14.6 µM (inactive)
same,GI50,[32],12.2 µM (inactive)
same,GI50,[33],12.5 µM (inactive)
same,GI50,[34],14.8 µM (inactive)
same,GI50,[35],11.8 µM (inactive)
same,GI50,[36],3.86 µM (inactive)
same,GI50,[37],15.9 µM (inactive)
same,GI50,[38],12 µM (inactive)
same,GI50,[39],15.7 µM (inactive)
same,GI50,[40],22 µM (inactive)
same,GI50,[41],10.9 µM (inactive)
same,GI50,[42],14.6 µM (inactive)
same,GI50,[43],> 8.75 µM (inactive)
same,GI50,[44],25.5 µM (inactive)
same,GI50,[45],7.66 µM (inactive)
same,GI50,[46],14.8 µM (inactive)
same,GI50,[47],17 µM (inactive)
same,GI50,[48],3.77 µM (inactive)
same,GI50,[49],17.4 µM (inactive)
same,GI50,[50],30.1 µM (inactive)
same,GI50,[51],11.8 µM (inactive)
O=C1C(=O)N(c2ccc(Cl)c(Cl)c2)C(=O)C(=O)C1c1nc2ccccc2s1,GI50,[1],> 100 µM (inactive)
same,GI50,[2],> 100 µM (inactive)
same,GI50,[3],> 100 µM (inactive)
same,GI50,[4],> 100 µM (inactive)
same,GI50,[5],> 100 µM (inactive)
same,GI50,[52],38.2 µM (inactive)
same,GI50,[6],> 100 µM (inactive)
same,GI50,[7],> 100 µM (inactive)
same,GI50,[8],> 100 µM (inactive)
same,GI50,[9],> 100 µM (inactive)
same,GI50,[10],> 100 µM (inactive)
same,GI50,[11],> 100 µM (inactive)
same,GI50,[12],> 100 µM (inactive)
same,GI50,[13],87.1 µM
same,GI50,[14],21.8 µM (inactive)
same,GI50,[15],> 100 µM (inactive)
same,GI50,[53],9.55 µM (inactive)
same,GI50,[16],> 100 µM (inactive)
same,GI50,[17],> 100 µM (inactive)
same,GI50,[18],> 100 µM (inactive)
same,GI50,[20],> 100 µM (inactive)
same,GI50,[21],> 100 µM (inactive)
same,GI50,[22],> 100 µM (inactive)
same,GI50,[23],> 100 µM (inactive)
same,GI50,[24],> 100 µM (inactive)
same,GI50,[25],> 100 µM (inactive)
same,GI50,[26],88.7 µM (inactive)
same,GI50,[27],> 100 µM (inactive)
same,GI50,[29],> 100 µM (inactive)
same,GI50,[30],> 100 µM (inactive)
same,GI50,[31],> 100 µM (inactive)
same,GI50,[32],> 100 µM (inactive)
same,GI50,[33],56.5 µM (inactive)
same,GI50,[54],> 100 µM (inactive)
same,GI50,[34],> 100 µM (inactive)
same,GI50,[35],> 100 µM (inactive)
same,GI50,[36],> 100 µM (inactive)
same,GI50,[37],> 100 µM (inactive)
same,GI50,[38],> 100 µM (inactive)
same,GI50,[39],> 100 µM (inactive)
same,GI50,[55],> 100 µM (inactive)
same,GI50,[40],> 100 µM (inactive)
same,GI50,[41],> 100 µM (inactive)
same,GI50,[42],44 µM (inactive)
same,GI50,[43],> 100 µM (inactive)
same,GI50,[44],> 100 µM (inactive)
same,GI50,[45],> 100 µM (inactive)
same,GI50,[46],> 100 µM (inactive)
same,GI50,[47],> 100 µM (inactive)
same,GI50,[48],> 100 µM (inactive)
same,GI50,[49],> 100 µM (inactive)
same,GI50,[50],> 100 µM (inactive)
same,GI50,[51],> 100 µM (inactive)
C/C(=N\NC(=O)c1ccccc1O)c1cccc(/C(C)=N/NC(=O)c2ccccc2O)n1.[Cl-].[Cl-].[Zn+2],GI50,[3],10.8 µM (inactive)
same,GI50,[4],2.17 µM (inactive)
same,GI50,[8],2.97 µM (inactive)
same,GI50,[10],19.6 µM (inactive)
same,GI50,[11],2.01 µM (inactive)
same,GI50,[13],7.35 µM
same,GI50,[53],10.6 µM (inactive)
same,GI50,[19],6.25 µM (inactive)
same,GI50,[20],1.37 µM (inactive)
same,GI50,[21],1.34 µM (inactive)
same,GI50,[22],7.96 µM (inactive)
same,GI50,[24],1.59 µM (inactive)
same,GI50,[25],10.8 µM (inactive)
same,GI50,[33],2.18 µM (inactive)
same,GI50,[34],8.05 µM (inactive)
same,GI50,[35],2.11 µM (inactive)
same,GI50,[36],9.98 µM (inactive)
same,GI50,[39],15.2 µM (inactive)
same,GI50,[55],10.4 µM (inactive)
same,GI50,[40],6.15 µM (inactive)
same,GI50,[43],17.9 µM (inactive)
same,GI50,[45],1.44 µM (inactive)
same,GI50,[46],5.85 µM (inactive)
same,GI50,[47],10.2 µM (inactive)
same,GI50,[50],2.11 µM (inactive)
same,GI50,[56],21.2 µM (inactive)
